# Experimental data from PMC2610240 (Drug metabolism and disposition: the biological fate of …, 2008).
# Where “and” joins values, the source holds several entries; their conditions need not be identical. Equal entries are not always repeated.
# Key:
# [1] = target: T1, CPR activity in human liver microsomes (Homo sapiens, UniProt P16435); test: Inhibition of CPR activity in HLMs
# T1 sequence (P16435 1-677): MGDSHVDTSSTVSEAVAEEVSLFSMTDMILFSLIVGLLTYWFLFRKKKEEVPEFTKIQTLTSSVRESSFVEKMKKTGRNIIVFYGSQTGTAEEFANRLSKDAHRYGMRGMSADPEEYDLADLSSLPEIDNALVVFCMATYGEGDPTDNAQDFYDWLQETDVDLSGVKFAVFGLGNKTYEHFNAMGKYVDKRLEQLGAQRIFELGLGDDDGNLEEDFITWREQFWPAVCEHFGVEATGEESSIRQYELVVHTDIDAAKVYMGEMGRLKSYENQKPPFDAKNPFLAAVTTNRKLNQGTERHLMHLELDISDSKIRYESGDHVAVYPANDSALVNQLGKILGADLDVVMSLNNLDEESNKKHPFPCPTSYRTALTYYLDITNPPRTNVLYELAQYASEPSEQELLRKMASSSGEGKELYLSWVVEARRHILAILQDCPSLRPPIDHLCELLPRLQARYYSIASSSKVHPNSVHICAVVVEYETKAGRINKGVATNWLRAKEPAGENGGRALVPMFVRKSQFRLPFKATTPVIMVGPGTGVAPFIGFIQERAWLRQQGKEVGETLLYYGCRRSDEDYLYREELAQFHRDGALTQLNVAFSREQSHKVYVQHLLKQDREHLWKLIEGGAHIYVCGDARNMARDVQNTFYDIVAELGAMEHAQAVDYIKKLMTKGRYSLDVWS
# [2] = target: T2, purified recombinant human CPR (NADPH-cytochrome P450 reductase) (Homo sapiens, UniProt P16435); test: Inhibition of recombinant CPR activity; conditions: recombinant enzyme
# T2 sequence (P16435 1-677): T1 sequence (P16435 1-677)
# [3] = test system: b5R activity in rat liver microsomes; conditions: concentrations up to 10 mM, ref Lee and Kariya, 1986; cited from earlier work
# [4] = test system: CPR activity in rat liver microsomes; conditions: concentrations up to 10 mM, ref Lee and Kariya, 1986; cited from earlier work
# [5] = target: T3, purified recombinant human b5R (NADH b5 reductase) (Homo sapiens, UniProt P00387); test: Inhibition of recombinant b5R activity; assay type: biochemical
# T3 sequence (P00387 1-301): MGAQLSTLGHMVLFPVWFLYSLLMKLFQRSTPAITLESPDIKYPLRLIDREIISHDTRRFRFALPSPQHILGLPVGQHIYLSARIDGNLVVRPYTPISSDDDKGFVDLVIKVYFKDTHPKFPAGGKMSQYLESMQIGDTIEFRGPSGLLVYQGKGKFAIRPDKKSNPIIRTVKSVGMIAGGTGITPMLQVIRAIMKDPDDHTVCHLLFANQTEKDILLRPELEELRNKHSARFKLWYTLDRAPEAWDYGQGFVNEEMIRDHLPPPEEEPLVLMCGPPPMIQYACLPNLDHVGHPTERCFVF
# [6] = target: T4, b5R activity in human liver microsomes (Homo sapiens, UniProt P00387); test: Inhibition of b5R activity in HLMs; assay type: biochemical
# T4 sequence (P00387 1-301): T3 sequence (P00387 1-301)
# [7] = target: T2, purified recombinant human CPR (NADPH-cytochrome P450 reductase); test: biochemical
SMILES,reduction in CPR activity ([1]; 4 mM PTU (highest concentration)),decrease in CPR activity ([2]; 4 mM PTU) [%],effect on b5R activity [3],effect on CPR activity [4],"decrease in b5R activity ([5]; recombinant enzyme, 4 mM PTU, 15 min pre-incubation at 25°C) [%]","reduction in b5R activity ([6]; 4 mM PTU (highest concentration), 15 min pre-incubation at 25°C) [%]",maximal inhibition of b5R activity ([6]; over 1 to 4 mM PTU),reduction in CPR activity ([1]; 2 mM α-lipoic acid) [%],"reduction in CPR activity ([2]; 2 mM α-lipoic acid, maximal effect) [%]",IC50 [7] [µM],IC50 [5] [µM],"reduction in b5R activity ([5]; recombinant enzyme, 2 mM α-lipoic acid, maximal effect) [%]",reduction in b5R activity ([6]; 2 mM α-lipoic acid) [%]
"CCCc1cc(=O)[nH]c(=S)[nH]1 [PTU, 6-propyl-2-thiouracil]",16% and < 20%,51,selectively inhibit b5R activity,without reducing CPR activity,78,41,about 40%,–,–,–,–,–,–
O=C(O)CCCCC1CCSS1 (stereo not drawn) [α-lipoic acid],–,–,–,–,–,–,–,76,92,140 ± 20,50 ± 50,84,54
